F/C=C/C(F)(F)F [trans-1,3,3,3-tetrafluoropropene]
Details	mass density [kg/m3]
343.15 K, 9736 kPa, Liquid, Vibrating tube method	1068.9
343.15 K, 10753 kPa, Liquid, Vibrating tube method	1076.1
343.15 K, 11770 kPa, Liquid, Vibrating tube method	1082.8
343.15 K, 12788 kPa, Liquid, Vibrating tube method	1089.2
343.15 K, 15829 kPa, Liquid, Vibrating tube method	1106.7
343.15 K, 17849 kPa, Liquid, Vibrating tube method	1117.1
343.15 K, 18851 kPa, Liquid, Vibrating tube method	1122
343.15 K, 19867 kPa, Liquid, Vibrating tube method	1126.8
343.15 K, 20877 kPa, Liquid, Vibrating tube method	1131.4
343.15 K, 21883 kPa, Liquid, Vibrating tube method	1135.8
343.15 K, 22905 kPa, Liquid, Vibrating tube method	1140.2
343.15 K, 23913 kPa, Liquid, Vibrating tube method	1144.3
343.15 K, 24913 kPa, Liquid, Vibrating tube method	1148.4
343.15 K, 25929 kPa, Liquid, Vibrating tube method	1152.4
343.15 K, 26933 kPa, Liquid, Vibrating tube method	1156.2
343.15 K, 27938 kPa, Liquid, Vibrating tube method	1160
343.15 K, 28947 kPa, Liquid, Vibrating tube method	1163.6
343.15 K, 29953 kPa, Liquid, Vibrating tube method	1167.2
343.15 K, 30968 kPa, Liquid, Vibrating tube method	1170.7
343.15 K, 31987 kPa, Liquid, Vibrating tube method	1174.2
343.15 K, 32989 kPa, Liquid, Vibrating tube method	1177.5
343.15 K, 33994 kPa, Liquid, Vibrating tube method	1180.8
343.16 K, 13798 kPa, Liquid, Vibrating tube method	1095.3
343.16 K, 14817 kPa, Liquid, Vibrating tube method	1101.1
343.16 K, 16838 kPa, Liquid, Vibrating tube method	1112
352.95 K, 306.8 kPa, Gas, isochoric method	12.346
352.96 K, 306.9 kPa, Gas, isochoric method	12.346
352.99 K, 522.8 kPa, Gas, isochoric method	21.739
353 K, 191.9 kPa, Gas, isochoric method	7.634
353 K, 672 kPa, Gas, isochoric method	28.571
353 K, 672.1 kPa, Gas, isochoric method	28.571
353 K, 867.3 kPa, Gas, isochoric method	38.462
353.01 K, 84.1 kPa, Gas, isochoric method	3.3
353.01 K, 191.9 kPa, Gas, isochoric method	7.634
353.01 K, 458.4 kPa, Gas, isochoric method	19.231
353.01 K, 739.8 kPa, Gas, isochoric method	32.258
353.02 K, 84.1 kPa, Gas, isochoric method	3.3
353.02 K, 739.8 kPa, Gas, isochoric method	32.258
353.03 K, 950.8 kPa, Gas, isochoric method	43.478
353.14 K, 30961 kPa, Liquid, Vibrating tube method	1149
353.15 K, 2236 kPa, Liquid, Vibrating tube method	936.2
353.15 K, 9793 kPa, Liquid, Vibrating tube method	1035.4
353.15 K, 12814 kPa, Liquid, Vibrating tube method	1058.8
353.15 K, 15825 kPa, Liquid, Vibrating tube method	1078.4
353.15 K, 16834 kPa, Liquid, Vibrating tube method	1084.4
353.15 K, 18850 kPa, Liquid, Vibrating tube method	1095.7
353.15 K, 19865 kPa, Liquid, Vibrating tube method	1101
353.15 K, 21883 kPa, Liquid, Vibrating tube method	1111
353.15 K, 22889 kPa, Liquid, Vibrating tube method	1115.7
353.15 K, 24907 kPa, Liquid, Vibrating tube method	1124.7
353.15 K, 25928 kPa, Liquid, Vibrating tube method	1129.2
353.15 K, 26934 kPa, Liquid, Vibrating tube method	1133.3
353.15 K, 27950 kPa, Liquid, Vibrating tube method	1137.5
353.15 K, 28953 kPa, Liquid, Vibrating tube method	1141.4
353.15 K, 29957 kPa, Liquid, Vibrating tube method	1145.2
353.15 K, 31977 kPa, Liquid, Vibrating tube method	1152.7
353.15 K, 32983 kPa, Liquid, Vibrating tube method	1156.3
353.15 K, 33998 kPa, Liquid, Vibrating tube method	1159.9
353.16 K, 2681 kPa, Liquid, Vibrating tube method	945.9
353.16 K, 3704 kPa, Liquid, Vibrating tube method	964.9
353.16 K, 4723 kPa, Liquid, Vibrating tube method	980.5
353.16 K, 5740 kPa, Liquid, Vibrating tube method	994
353.16 K, 6749 kPa, Liquid, Vibrating tube method	1005.9
353.16 K, 7775 kPa, Liquid, Vibrating tube method	1016.7
353.16 K, 8789 kPa, Liquid, Vibrating tube method	1026.5
353.16 K, 10794 kPa, Liquid, Vibrating tube method	1043.6
353.16 K, 11799 kPa, Liquid, Vibrating tube method	1051.4
353.16 K, 13815 kPa, Liquid, Vibrating tube method	1065.7
353.16 K, 14816 kPa, Liquid, Vibrating tube method	1072.2
353.16 K, 17837 kPa, Liquid, Vibrating tube method	1090.2
353.16 K, 20878 kPa, Liquid, Vibrating tube method	1106.1
353.16 K, 23896 kPa, Liquid, Vibrating tube method	1120.3
362.94 K, 86.6 kPa, Gas, isochoric method	3.3
362.94 K, 316.2 kPa, Gas, isochoric method	12.346
362.94 K, 316.3 kPa, Gas, isochoric method	12.346
362.95 K, 473.2 kPa, Gas, isochoric method	18.868
362.96 K, 197.6 kPa, Gas, isochoric method	7.634
362.96 K, 473.2 kPa, Gas, isochoric method	18.868
362.96 K, 540 kPa, Gas, isochoric method	21.739
362.96 K, 695.3 kPa, Gas, isochoric method	28.571
362.97 K, 899.7 kPa, Gas, isochoric method	38.462
362.97 K, 987.6 kPa, Gas, isochoric method	43.478
362.98 K, 766.3 kPa, Gas, isochoric method	32.258
362.98 K, 987.6 kPa, Gas, isochoric method	43.478
372.89 K, 557 kPa, Gas, isochoric method	21.739
372.9 K, 89.1 kPa, Gas, isochoric method	3.3
372.9 K, 325.6 kPa, Gas, isochoric method	12.346
372.9 K, 557 kPa, Gas, isochoric method	21.739
372.91 K, 203.3 kPa, Gas, isochoric method	7.634
372.92 K, 792.3 kPa, Gas, isochoric method	32.258
372.93 K, 488 kPa, Gas, isochoric method	18.868
372.95 K, 1023.8 kPa, Gas, isochoric method	43.478
372.95 K, 1023.9 kPa, Gas, isochoric method	43.478
372.96 K, 931.7 kPa, Gas, isochoric method	38.462
372.97 K, 718.5 kPa, Gas, isochoric method	28.571
372.97 K, 718.6 kPa, Gas, isochoric method	28.571
